Experimental data taken from patent US20070249011A1, “Method for Screening Fungus-Specific Antimicrobial Agent and Kit Therefor” (priority 2004, published 2007).

Key:
Type in all cases: cell-based, Saccharomyces cerevisiae
[1] = tested on: ATCC201388 [pYES2-HIK1]; assay: Reagent sensitivity by liquid culture (doubling time), HIK1-expressing yeast; settings: 25 ppm reagent, liquid culture in SG/-Ura (GAL1 expression-inducing conditions), 27° C., 160 rpm, average ± standard deviation
[2] = tested on: ATCC201388 [pYES2]; assay: Reagent sensitivity by liquid culture (doubling time), vector-only control yeast; settings: 25 ppm reagent, liquid culture in SG/-Ura (GAL1 expression-inducing conditions), 27° C., 160 rpm, average ± standard deviation
[3] = tested on: pYES2-HIK1 transformant; assay: Reagent sensitivity by plate culture, HIK1-expressing yeast; settings: for concentration at which the effect was saturated / growth inhibition in the presence of the reagent: SG plates; for concentration at which the effect was saturated: GAL1 expression-inducing conditions (FIG. 5B); for growth inhibition in the presence of the reagent: GAL1 expression-inducing conditions, 30° C., 60 hours, 5-100 ppm (FIG. 5B)
[4] = tested on: pYES2 transformant; assay: Reagent sensitivity by plate culture, vector-only control yeast
[5] = tested on: strain introducing pYES2-hik1-H736V; assay: Reagent sensitivity by plate culture, yeast expressing Hik1-H736V (nonfunctional histidine kinase domain); settings: 25 ppm fludioxonil, 25 ppm iprodione, 50 ppm chloroneb; SG plates, 30° C., 72 hours (FIG. 6B)
Method: (§1) The reagents were added to each SG medium so that 25 ppm fludioxonil, 25 ppm iprodione, 50 ppm chloroneb, and 0.5 M NaCl were contained in order from the second leftmost plate;
(§2) Reagent sensitivity was analyzed by plate culture and liquid culture. In the plate culture, strains were precultured overnight in 5 ml of SD/-Ura and then collected, followed by washing with 10 ml of SG/-Ura. The resulting strains were cultured for 8 hours to 10 hours in 10 ml of SG/-Ura, followed by OD600 measurement. They were diluted to 10^7 cells/ml, 10^6 cells/ml, 10^5 cells/ml, and 10^4 cells/ml, and 5 μl each thereof was added dropwise onto SG/-Ura plates supplemented with a variety of reagents, and cultured for 60 hours to 240 hours. In the liquid culture, strains were precultured overnight in 5 ml of SD/-Ura and then collected, followed by washing with 10 ml of SG/-Ura. The resulting strains were cultured for 8 hours to 10 hours in 10 ml of SG/-Ura, followed by OD600 measurement. They were added at OD600=0.01 to 300-ml Erlenmeyer flasks accommodating 50 ml of SG/-Ura containing a variety of reagents. After shaking by spinning at 160 rpm and 27° C., sampling was performed after 12, 15, 18, 21, 24, 33, 36, and 39 hours, followed by OD600 measurement. A growth curve was created to calculate a doubling time.
(§3) (2) Mutagenized HIK1 was prepared with Mutan-Express Km kit (TAKARA SHUZO) using synthetic DNAs for mutagenesis (HK-H736V: 5′-[…]-3′ (SEQ ID NO: 2) and HK-D1153E: 5′-[…]-3′ (SEQ ID NO: 3)). Each mutagenized HIK1 was cloned into the BamHI site of pYES2 to prepare pYES2-hik1-H736V and […]. […]

[6] = tested on: strain introducing pYES2-hik1-D1153E; assay: Reagent sensitivity by plate culture, yeast expressing Hik1-D1153E (nonfunctional response regulator domain); settings: 25 ppm fludioxonil, 25 ppm iprodione, 50 ppm chloroneb; SG plates, 30° C., 72 hours (FIG. 6B)
Method: as §1, §2, §3

[7] = tested on: hog1 mutant strain introducing pYES2-HIK1; assay: Reagent sensitivity by plate culture, hog1 mutant strain introducing pYES2-HIK1; settings: 25 ppm fludioxonil, 25 ppm iprodione, 50 ppm chloroneb; SG plates, 30° C., 60 hours (FIG. 7A)
From the text: (§4) A suspension of a control yeast cell introducing pYES2-HIK1 therein (uppermost rows), a suspension of a hog1 mutant strain cell introducing pYES2-HIK1 therein (second rows), a suspension of an ssk1 mutant strain cell introducing pYES2-HIK1 therein (third rows), a suspension of a ste11 mutant strain cell introducing pYES2-HIK1 therein (fourth rows), a suspension of a control yeast cell introducing pYES2 therein (fifth rows), a suspension of a hog1 mutant strain cell introducing pYES2-HIK1 therein (sixth rows), a suspension of an ssk1 mutant strain cell introducing pYES2-HIK1 therein (seventh rows), and a suspension of a ste11 mutant strain cell introducing pYES2-HIK1 therein (lowermost rows) were added (5 μl each) dropwise at 9 mm spacings (from the left, 10^7, 10^6, 10^5, and 10^4/ml) in order from the uppermost rows of plates of 90 mm in diameter containing a variety of reagents, followed by culture at 30° C. for 60 hours (or 96 hours for NaCl). […] A suspension of a hog1 mutant strain cell introducing pCLΔ-HOG1 and pYES2-HIK1 therein (uppermost rows), a suspension of a hog1 mutant strain cell introducing pCLΔ and pYES2-HIK1 therein (second rows), a suspension of an ssk1 mutant strain cell introducing pCLΔ-SSK1 and pYES2-HIK1 therein (third rows), and a suspension of an ssk1 mutant strain cell introducing pCLΔ and pYES2-HIK1 therein (lowermost rows) were added (5 μl each) dropwise at 9 mm spacings (from the left, 10 ^7, 10^6, 10^5, and 10^4/ ml) in order from the uppermost rows of plates of 90 mm in diameter containing a variety of reagents, followed by culture at 30° C. for 60 hours (or 96 hours for NaCl). The reagents were added to each SG medium so that 25 ppm fludioxonil, 25 ppm iprodione, 50 ppm chloroneb, and 0.5 M NaCl were contained in order from the second leftmost plate; and
(§5) Reagent sensitivity was analyzed by plate culture and liquid culture. In the plate culture, strains were precultured overnight in 5 ml of SD/-Ura and then collected, followed by washing with 10 ml of SG/-Ura. […]

[8] = tested on: ssk1 mutant strain introducing pYES2-HIK1; assay: Reagent sensitivity by plate culture, ssk1 mutant strain introducing pYES2-HIK1; settings: 25 ppm fludioxonil, 25 ppm iprodione, 50 ppm chloroneb; SG plates, 30° C., 60 hours (FIG. 7A)
From the text: as §4, §5

[9] = tested on: ste11 mutant strain introducing pYES2-HIK1; assay: Reagent sensitivity by plate culture, ste11 mutant strain introducing pYES2-HIK1; settings: 25 ppm fludioxonil, 25 ppm iprodione, 50 ppm chloroneb; SG plates, 30° C., 60 hours (FIG. 7A)
From the text: as §4, §5

[10] = SG plates, GAL1 expression-inducing conditions, 30° C., 60 hours, 5-100 ppm (FIG. 5B)
[11] = all the strains (control, hog1, ssk1, ste11 mutant) introducing pYES2, 25 ppm fludioxonil, 25 ppm iprodione, 50 ppm chloroneb (FIG. 7A)

Row | Compound | doubling time [1] [h] | doubling time ([1]; listed as iprodione) [h] | doubling time [2] [h] | doubling time ([2]; listed as iprodione) | concentration at which the effect was saturated [3] [ppm] | growth inhibition in the presence of the reagent [3] | sensitivity to the reagent [4, 10] | sensitivity to the reagent [4, 11] | sensitivity to the reagent [5] | sensitivity to the reagent [6] | sensitivity to the reagent [7] | sensitivity to the reagent [8] | sensitivity to the reagent [9] | doubling time ([1]; listed as chloroneb) [h] | doubling time ([2]; listed as chloroneb) | doubling time ([1]; listed as fludioxonil) [h] | doubling time ([2]; listed as fludioxonil) | difference in sensitivity between the pYES2-HIK1 transformant and the pYES2 transformant ([3]; expression-inducing conditions, 0.25 ppm, cultured for 240 hours (FIG. 5B))
1 | CC(C)NC(=O)N1CC(=O)N(c2cc(Cl)cc(Cl)c2)C1=O [Iprodione, iprodione] | 3.12 ± 0.10 | 3.12 | 2.12 ± 0.06 | around 2.2 hours | 25 | exhibited growth inhibition | no sensitivity | no sensitivity | hardly exhibited sensitivity | hardly exhibited sensitivity | did not exhibit sensitivity | did not exhibit sensitivity | exhibited sensitivity |  |  |  |  | 
2 | COc1cc(Cl)c(OC)cc1Cl [Chloroneb, chloroneb] | 2.90 ± 0.11 |  | 2.17 ± 0.08 |  | 50 | exhibited growth inhibition | no sensitivity | no sensitivity | hardly exhibited sensitivity | hardly exhibited sensitivity | did not exhibit sensitivity | did not exhibit sensitivity | exhibited sensitivity | 2.90 | around 2.2 hours |  |  | 
3 | N#Cc1c[nH]cc1-c1cccc2c1OC(F)(F)O2 [Fludioxonil, fludioxonil] | 4.25 ± 0.20 |  | 2.25 ± 0.06 |  | 5 | exhibited growth inhibition | no sensitivity | no sensitivity | hardly exhibited sensitivity | hardly exhibited sensitivity | did not exhibit sensitivity | did not exhibit sensitivity | exhibited sensitivity |  |  | 4.25 | around 2.2 hours | 
4 | C[C@@H]1C[C@@H]([C@H](O)CC2CC(=O)NC(=O)C2)C(=O)[C@@H](C)C1 [cycloheximide] |  |  |  |  |  |  |  |  |  |  |  |  |  |  |  |  |  | No difference in sensitivity
